One experiment concerns the target NahK_ATCC15697 (Bifidobacterium longum, UniProt B7GN78). Briefly: Substrate specificity CE assay, NahK_ATCC15697. It is filed as biochemical, Bifidobacterium infantis. The method, then: (§1) Substrates specificity assays. GlcNAc, GalNAc, and their derivatives (1 mM) were used as substrates in the presence of ATP (1 mM) and MgCl2 (5 mM) in a Tris-HCl buffer (pH 8.0, 200 mM) to analyze the substrate specificity of NahKs. Two concentrations (0.75 μM or 15 μM) of each NahK were used and the reactions were allowed to proceed for 10 min (for 0.75 μM NahK) or 30 min (for 15 μM NahK) at 37° C. […] All other conditions were the same as for GlcNAc, GalNAc, and their derivatives.
(§2) Capillary electrophoresis (CE) assays. Based on the detection of ADP and ATP in the reaction mixture by a UV detector, a capillary electrophoresis-based method was developed to directly measure the formation of ADP and N-acetylhexosamine-1-phosphate from ATP and N-acetylhexosamine for characterizing the activities of NahKs.

The next experiment concerns the target NahK_ATCC55813 (Bifidobacterium longum subsp. longum, UniProt E8MF12, D7V/R348H). In kind it is biochemical. Also noted: made in house; host or cells: E. coli BL21(DE3). The method, then:
as §1, §2

The next experiment has as its system NahK. Nature of the experiment: Kinase reaction monitored by CE (ATP to ADP), NahK. In kind it is biochemical, Bifidobacterium infantis. To be noted: monosaccharide 15 mM, ATP 18 mM, 37° C. On the procedure: Capillary electrophoresis (CE) and thin-layer chromatograph (TLC) assays for kinase reactions. Kinase reactions were carried out at 37° C. in a total volume of 30 μL in Tris-HCl buffer (100 mM, pH 8.0) containing monosaccharide (15 mM), ATP (18 mM, 1.2 eq.), MgCl2 (10 mM), and a kinase (6 μg). These conditions were similar to those used for preparative-scale synthesis. After 1 hr, 4 hr, and 24 hr, an aliquot of 8 μL was withdrawn from each reaction mixture, boiled in a water bath for 5 min and stored at −20° C. until being analyzed by capillary electrophoresis (CE) and TLC. For TLC analysis, 0.5 μL of each sample was directly spotted on TLC plates, developed using suitable developing solvents, and stained with anisaldehyde sugar stain. For CE analysis, 1.5 μL of each sample was diluted into 30 μL and subjected to CE analysis as described above for pH profile studies.
General methods for compound purification and characterization. Chemicals were purchased and used without further purification. ^1H NMR and ^13C NMR spectra were recorded on a Varian Mercury 600 NMR spectrometer. High resolution electrospray ionization (ESI) mass spectra were obtained in negative mode using Thermo Electron LTQ-Orbitrap mass spectrometer. Silica gel 60 Å (Sorbent Technologies) was used for flash column chromatography. Thin-layer chromatography (TLC) was performed on silica gel plates 60 GF254 (Sorbent Technologies) using anisaldehyde sugar stain for detection. Gel filtration chromatography was performed with a column (100 cm×2.5 cm) packed with BioGel P-2 Fine resins (Bio-Rad). GlcN3 (T6-9) (Lau K, Thon, V, Yu H, Ding L, Chen Y, Muthana M M, Wong D, Huang R, and Chen X. Chem. Commun. 2010, 46, 6066-6068), ManF (T6-11) (Burkart M D, Zhang Z, Hung S-C, and Wong C-H. J. Am. Chem. Soc. 1997, 119, 11743-11746; Cao H, Li Y, Lau K, Muthana S, Yu H, Cheng J, Chokhawala H A, Sugiarto G, Zhang L, and Chen X. Org. Biomol. Chem. 2009, 7, 5137-5145), GalN3 (T6-4) and ManN3 (T6-14) (Yu H, Yu H, Karpel R, cand Chen X. Bioorg. Med. Chem. 2004, 12, 6427-6435) were previously synthesized using reported methods. NahK_ATCC15697, EcGalK, SpGalK, and PmPpA were overexpressed as described previously.

The mark [1] stands for this setting: 0.75 μM enzyme, 10 min at 37° C., substrate 1 mM, ATP 1 mM.
The mark [2] stands for this setting: 15 μM enzyme, 30 min at 37° C., substrate 1 mM, ATP 1 mM (Table 2).
Where [3] appears, read: Glc, Gal, Man, ManNAc and derivatives, enzyme 15, 37° C. for 30 min (Table 3).
Where [4] appears, read: Glc, Gal, Man, ManNAc and derivatives, enzyme 15, 37° C. for 30 min (Table 3), listed as drawing 49.

Read-outs that look alike come from different tables or passages of the source.

In the case of `[N-]=[N+]=NC1C(O)OC(COS(=O)(=O)O)[C@@H](O)[C@@H]1O` (stereo partly shown) [6-O-sulfo-2-azido-2-deoxy glucose], the “Percentage Conversion” value at NahK_ATCC15697 (setting [1]) stood at 0%; on NahK_ATCC15697 (setting [2]), 6.9 ± 0.1%; at NahK_ATCC55813 (setting [1]), 0%; at NahK_ATCC55813 (setting [2]) it was 4.4 ± 0.1%.
On to `[N-]=[N+]=NCC(=O)N[C@@H]1C(O)O[C@H](CO)[C@@H](O)[C@@H]1O` (stereo partly shown) [N-azidoacetylmannosamine], for which the “Percentage Conversion” value at NahK_ATCC15697 (setting [3]) is 20.3 ± 0.3%; at NahK_ATCC55813 (setting [3]) it was 18.6 ± 0.4%.
As to `O=C(NC1C(O)OC(CO)[C@@H](O)C1O)C(F)(F)F` (stereo partly shown) [GlcNTFA], the “Percentage Conversion” value on NahK_ATCC15697 (setting [1]) was determined as 10.7 ± 0.9%; at NahK_ATCC55813 (setting [1]), 16.2 ± 0.9%.
The like results for `[N-]=[N+]=NCC(=O)NC1C(O)OC(CO)[C@H](O)C1O` (stereo partly shown) [GalNAcN3] were, in that order, 9.9 ± 0.6% and 21.0 ± 1.2%.
For the molecule `OCC1OC(O)C(O)[C@@H](O)[C@@H]1O` (stereo partly shown) [Man, mannose], the “ATP Conversion” value with NahK (1 hr, listed as T6-11 Man) stood at 29.6%; in the experiment with NahK (4 hr, listed as T6-11 Man), 69.3%; in the experiment on NahK (24 hr, listed as T6-11 Man) it was 75.1%. Besides, the “Percentage Conversion” value on NahK_ATCC15697 (setting [4]) was 68.0 ± 1.7%; on NahK_ATCC55813 (setting [4]), 37.1 ± 0.4%.
On to `CC(=O)NC1C(O)OC(CN=[N+]=[N-])[C@@H](O)C1O` (stereo partly shown) [6-azido-6-deoxy-GlcNAc], for which the “Percentage Conversion” value came to 0% on NahK_ATCC15697 (setting [1]), 37.2 ± 0.5% on NahK_ATCC15697 (setting [2]), 0% at NahK_ATCC55813 (setting [1]) and 23.4 ± 0.1% at NahK_ATCC55813 (setting [2]).
Turning to `O=C(CO)NC1C(O)OC(CO)[C@@H](O)C1O` (stereo partly shown), the results for the “Percentage Conversion” value on NahK_ATCC15697 (setting [3]) and on NahK_ATCC55813 (setting [3]) were 7.6 ± 0.1% and 5.4 ± 0.2%, respectively.
For `[N-]=[N+]=NC1C(O)OC(CO)[C@@H](O)C1O` (stereo partly shown) [2N3-Man], the “ATP Conversion” value in the experiment with NahK (1 hr) is 34.9%; in the experiment with NahK (4 hr), 65.9%; with NahK (24 hr) it was 76.4%. For the same molecule, the “Percentage Conversion” value came out at 53.3 ± 0.1% on NahK_ATCC15697 (setting [3]) and 40.2 ± 0.2% at NahK_ATCC55813 (setting [3]).
`O=S(=O)(O)NC1C(O)OC(CO)[C@@H](O)C1O` (stereo partly shown) [2-N-sulfo-glucose]: the “Percentage Conversion” value stood at 0% at NahK_ATCC15697 (setting [1]), 6.4 ± 0.2% at NahK_ATCC15697 (setting [2]), 0% on NahK_ATCC55813 (setting [1]) and 4.0 ± 0.1% at NahK_ATCC55813 (setting [2]).
With `COCC1OC(O)C(NC(C)=O)[C@@H](O)[C@@H]1O` (stereo partly shown) [N-acetyl-6-O-methylmannosamine], the “Percentage Conversion” value at NahK_ATCC15697 (setting [3]) is reported as 32.6 ± 0.1%; on NahK_ATCC55813 (setting [3]) it was 28.9 ± 0.1%.
The like results for `O=C(CF)NC1C(O)OC(CO)[C@@H](O)C1O` (stereo partly shown) were, in that order, 12.0 ± 0.1% and 9.1 ± 0.2%.
With `N[C@@H]1C(O)O[C@H](CO)[C@@H](O)[C@@H]1O` (stereo partly shown) [T6-13 ManNH2, mannosamine], the entries for the “ATP Conversion” value in the experiment on NahK (1 hr), with NahK (4 hr) and in the experiment on NahK (24 hr) were 10.3%, 22.8% and 58.0%, respectively.
For `CC(=O)N[C@@H]1C(O)O[C@H](CO)[C@@H](O)[C@@H]1O` (stereo partly shown) [N-acetylmannosamine], the results for the “ATP Conversion” value with NahK (1 hr), in the experiment on NahK (4 hr) and in the experiment with NahK (24 hr) were 11.4%, 26.1% and 73.8%, respectively. Further, the “Percentage Conversion” value at NahK_ATCC15697 (setting [3]) is on record as 8.9 ± 0.1%; on NahK_ATCC55813 (setting [3]), 5.5 ± 0.1%.
The like results for `OCC1OC(O)C[C@@H](O)[C@@H]1O` (stereo partly shown) [2-deoxy glucose] were, in that order, 36.8%, 69.6%, 79.4%, 44.8 ± 0.2% and 28.4 ± 0.1%.
As to `O=C(NC1C(O)OC(COS(=O)(=O)O)[C@@H](O)C1O)C(F)(F)F` (stereo partly shown) [6-O-sulfo-N-trifluoroacetyl glucosamine], the “Percentage Conversion” value was determined as 0% on NahK_ATCC15697 (setting [1]), 7.2 ± 0.1% on NahK_ATCC15697 (setting [2]), 0% at NahK_ATCC55813 (setting [1]) and 3.3 ± 0.2% on NahK_ATCC55813 (setting [2]).
For the molecule `O=C(NC1C(O)OC(CO)[C@H](O)C1O)c1ccccc1` (stereo partly shown) [GalNBz], the “Percentage Conversion” value was 0% at NahK_ATCC15697 (setting [1]), 62.2 ± 1.0% at NahK_ATCC15697 (setting [2]), 0% at NahK_ATCC55813 (setting [1]) and 51.9 ± 0.5% on NahK_ATCC55813 (setting [2]).
With `CC(=O)NC1C(O)OC(C)[C@@H](O)C1O` (stereo partly shown) [6-deoxy-GlcNAc], the “Percentage Conversion” value on NahK_ATCC15697 (setting [1]) stood at 4.4 ± 1.2%; on NahK_ATCC15697 (setting [2]), 41.8 ± 0.3%; on NahK_ATCC55813 (setting [1]), 2.1 ± 0.2%; at NahK_ATCC55813 (setting [2]), 36.3 ± 0.3%.
The like results for `CC(=O)NC1C(O)OC(COS(=O)(=O)O)[C@@H](O)C1O` (stereo partly shown) [6-O-sulfo-GlcNAc] were, in that order, 0%, 11.7 ± 0.2%, 0% and 6.6 ± 0.1%.
Turning to `O=C(NC1C(O)OC(CO)[C@@H](O)C1O)c1ccccc1` (stereo partly shown) [GlcNBz], the “Percentage Conversion” value at NahK_ATCC15697 (setting [1]) worked out at 10.3 ± 0.4%; on NahK_ATCC55813 (setting [1]) it was 5.2 ± 0.2%.
As to `OCC1CC(O)C(O)C(O)O1` (stereo not shown) [4-deoxyMan], the “Percentage Conversion” value is given as 37.1 ± 0.2% on NahK_ATCC15697 (setting [3]) and 23.9 ± 0.1% at NahK_ATCC55813 (setting [3]).
For the molecule `CC(=O)NC1C(O)OC(CO)[C@@H](O)[C@@H]1O` (stereo partly shown) [GlcNAc, N-acetylglucosamine], the “ATP Conversion” value came out at 72.6% in the experiment on NahK (1 hr), 84.6% in the experiment on NahK (4 hr) and 85.5% with NahK (24 hr). Besides, the “Percentage Conversion” value is 35.4 ± 0.1% at NahK_ATCC15697 (setting [1]) and 42.3 ± 0.2% on NahK_ATCC55813 (setting [1]).
In the case of `O=C(NC1C(O)OC(CO)[C@H](O)C1O)C(F)(F)F` (stereo partly shown) [GalNTFA], the entries for the “Percentage Conversion” value at NahK_ATCC15697 (setting [1]) and on NahK_ATCC55813 (setting [1]) were 11.2 ± 1.6% and 21.8 ± 0.2%, respectively.
Turning to `[N-]=[N+]=N[C@@H](C=O)[C@@H](OS(=O)(=O)O)[C@H](O)[C@H](O)CO` [3-O-sulfo-2-azido-2-deoxy glucose], the “Percentage Conversion” value worked out at 0% on NahK_ATCC15697 (setting [1]), 4.9 ± 0.1% on NahK_ATCC15697 (setting [2]), 0% at NahK_ATCC55813 (setting [1]) and 3.9 ± 0.1% on NahK_ATCC55813 (setting [2]).
Regarding `COCC(=O)NC1C(O)OC(CO)[C@@H](O)C1O` (stereo partly shown), the “Percentage Conversion” value is on record as 12.0 ± 0.4% at NahK_ATCC15697 (setting [3]) and 7.4 ± 0.3% on NahK_ATCC55813 (setting [3]).
In the case of `COC1C(O)OC(CO)[C@@H](O)C1O` (stereo partly shown) [2Me-Man], the results for the “Percentage Conversion” value on NahK_ATCC15697 (setting [3]) and on NahK_ATCC55813 (setting [3]) were 9.4 ± 0.5% and 0%, respectively.
Consider `CCCC(=O)NC1C(O)OC(CO)[C@H](O)C1O` (stereo partly shown) [GalNBu], for which the results for the “Percentage Conversion” value at NahK_ATCC15697 (setting [1]) and at NahK_ATCC55813 (setting [1]) were 12.1 ± 0.3% and 24.0 ± 0.1%, respectively.
In the same order, the values of `CCCC(=O)NC1C(O)OC(CO)[C@@H](O)C1O` (stereo partly shown) [GlcNBu] are 20.9 ± 0.6% and 35.0 ± 2.0%.
In the same order, the values of `[N-]=[N+]=NCC(=O)NC1C(O)OC(CO)[C@@H](O)C1O` (stereo partly shown) [GlcNAcN3] are 11.5 ± 1.0% and 22.8 ± 0.4%.

These data come from US10160986B2, “Chemoenzymatic synthesis of heparin and heparan sulfate analogs” (The Regents of the University of California, priority 2011, dated 2018).
